Measurements published in PubChem BioAssay AID1996.
In brackets after ≈: the same amount, converted by molar mass.

conditions: buffer; pH 7.4; 200.0 µM

For `CCN(c1ccccc1)S(=O)(=O)c1ccc(Cl)c(NC(=O)CNCc2ccccc2OC)c1`, which solubility kinetic is on record?
Its solubility kinetic is 3.7 µg/mL (≈ 7.58 µM).

Which solubility kinetic does the source give for `CN1CCN(c2ccncc2S(=O)(=O)N2CCCCC2)CC1` here?
Its solubility kinetic is greater than 48.7 µg/mL.

For `OCC1(CC2CCCCO2)CCN(Cc2cccc(O)c2)CC1` (centres undefined), which solubility kinetic is on record?
The solubility kinetic was 47.3 µg/mL (≈ 148 µM).

For `COc1ccc(OC)c(/C=C(\C)C(=O)c2c(C)cc(C)[nH]c2=O)c1`, which solubility kinetic is on record?
Its solubility kinetic is 40.4 µg/mL (≈ 123 µM).

For `Cc1ccc(S(=O)(=O)N2CCN(C(=O)c3ccco3)CC2)cc1C`, which solubility kinetic is on record?
The solubility kinetic was 46 µg/mL (≈ 132 µM).

With `CC(=O)c1cccc(S(=O)(=O)N2CCC(C(=O)O)CC2)c1` as the compound, how does the solubility kinetic read?
Its solubility kinetic is greater than 46.7 µg/mL.

Which solubility kinetic does the source give for `COC(=O)COc1ccc(NC(=O)c2ccco2)cc1` here?
Its solubility kinetic is 39.1 µg/mL (≈ 142 µM).

For `O=C(OCc1cc(=O)n2ccsc2n1)c1ccccc1NCCO`, which solubility kinetic is on record?
The solubility kinetic was greater than 51.8 µg/mL.

For `N#Cc1ccc(COC(=O)c2ccc3c(c2)OCO3)cc1`, which solubility kinetic is on record?
Its solubility kinetic is 2.3 µg/mL (≈ 8.18 µM).

For `Cc1cc(C(=O)Nc2ccc(OCc3ccccc3)cc2)c(C)o1`, which solubility kinetic is on record?
The solubility kinetic was less than 0.7 µg/mL.

For `CC(=O)Nc1ccccc1C(=O)C(=O)Nc1cccc(Br)c1`, which solubility kinetic is on record?
Its solubility kinetic is 29.1 µg/mL (≈ 80.6 µM).

For `CC(C)(CNS(=O)(=O)c1ccc(Br)s1)N1CCOCC1`, which solubility kinetic is on record?
Its solubility kinetic is greater than 57.5 µg/mL.

Which solubility kinetic does the source give for `Clc1ccccc1Sc1ccc(-c2ccccn2)s1` here?
Its solubility kinetic is less than 0.7 µg/mL.

For `C1CCC2S[C@H]3CCCCC3NC2C1` (some centres undefined), which solubility kinetic is on record?
Its solubility kinetic is 25.3 µg/mL (≈ 120 µM).

With `Cc1cn2c(=O)c(C(=O)N3CCN(c4ccccc4F)CC3)cnc2s1` as the compound, how does the solubility kinetic read?
Its solubility kinetic is greater than 55.9 µg/mL.

For `Nc1cc(Oc2ccc(Cl)cc2Cl)nc(N)n1`, which solubility kinetic is on record?
The solubility kinetic was 39.5 µg/mL (≈ 146 µM).

With `Cc1onc(-c2ccccc2)c1C(=O)NCc1cccc(Cl)c1` as the compound, how does the solubility kinetic read?
Its solubility kinetic is 1.1 µg/mL (≈ 3.37 µM).

For `Cc1[nH]n2cnnc2c(=O)c1Br.O=S(=O)(O)O`, which solubility kinetic is on record?
The solubility kinetic was greater than 49.1 µg/mL.

For `COc1ccccc1OCCn1c(=O)n(C)c2ccccc21`, which solubility kinetic is on record?
Its solubility kinetic is 42.2 µg/mL (≈ 141 µM).

With `COc1cccc2cc(C(=O)NCc3ccc(C)cc3)c(=O)oc12` as the compound, how does the solubility kinetic read?
Its solubility kinetic is less than 0.7 µg/mL.

For `COc1cc(OC)nc(Oc2cccc(Cl)c2C)n1`, which solubility kinetic is on record?
Its solubility kinetic is 1.5 µg/mL (≈ 5.34 µM).

Which solubility kinetic does the source give for `CCC(C)NC(=O)Cc1c(OC)ccc2cc(Br)ccc12` (centres undefined) here?
Its solubility kinetic is less than 0.8 µg/mL.

With `O=C(CCCC(=O)c1ccccc1)NCc1ccccc1` as the compound, how does the solubility kinetic read?
Its solubility kinetic is greater than 42.2 µg/mL.

Which solubility kinetic does the source give for `O=C(CCCCC(=O)Nc1ccc(F)cc1F)Nc1ccc(F)cc1F` here?
The solubility kinetic was 4.4 µg/mL (≈ 11.9 µM).

For `CCOC(=O)c1sc(/N=C/c2c(O)ccc3ccccc23)cc1C`, which solubility kinetic is on record?
The solubility kinetic was 9.8 µg/mL (≈ 28.9 µM).

Which solubility kinetic does the source give for `S=C(NCC1CCCO1)NC1CC1` (centres undefined) here?
The solubility kinetic was greater than 30 µg/mL.

Which solubility kinetic does the source give for `N#Cc1ccccc1S(=O)(=O)N1CCN(C(=O)C2CC(=O)N(c3ccc4c(c3)OCCO4)C2)CC1` (centres undefined) here?
The solubility kinetic was 68.6 µg/mL (≈ 138 µM).

With `CC1CCCCC1NC(=O)COC(=O)c1ccc2c(=O)n3c(nc2c1)CCC3` (centres undefined) as the compound, how does the solubility kinetic read?
The solubility kinetic was 22.2 µg/mL (≈ 57.9 µM).

For `COc1cc(NC(=O)CCN2CCOCC2)cc(OC)c1`, which solubility kinetic is on record?
The solubility kinetic was greater than 44.2 µg/mL.

For `C1=NCCc2c1[nH]c1ccccc21.[O-][Cl+3]([O-])([O-])O`, which solubility kinetic is on record?
Its solubility kinetic is greater than 40.6 µg/mL.

For `Cc1ccccc1-c1nnc(SCC(=O)N2CCCC2)o1`, which solubility kinetic is on record?
Its solubility kinetic is greater than 45.5 µg/mL.

For `O=C(CN1C(=O)NC2NC(=O)NC21)N/N=C/c1ccccc1O` (centres undefined), which solubility kinetic is on record?
Its solubility kinetic is greater than 47.7 µg/mL.

For `Cc1ccc(NC(=O)c2cnc3ccccc3n2)cc1C`, which solubility kinetic is on record?
Its solubility kinetic is 0.3 µg/mL (≈ 1.08 µM).

With `Cn1cc(C(=O)C(=O)NC2CCCCC2)c2ccccc21` as the compound, how does the solubility kinetic read?
Its solubility kinetic is 31.8 µg/mL (≈ 112 µM).

With `Cc1cc(Nc2ccccc2Cl)nc(-c2ccccc2O)n1` as the compound, how does the solubility kinetic read?
The solubility kinetic was 1.3 µg/mL (≈ 4.17 µM).

Which solubility kinetic does the source give for `C[C@@H]1NC(=O)/C(=C\c2ccccc2Br)NC1=O` here?
The solubility kinetic was 13.1 µg/mL (≈ 44.4 µM).

With `CS(=O)(=O)N1Cc2ccccc2CC1C(=O)O` (centres undefined) as the compound, how does the solubility kinetic read?
The solubility kinetic was greater than 38.3 µg/mL.

For `CCOCCCNC(=O)/C(C#N)=C/c1ccccc1F`, which solubility kinetic is on record?
The solubility kinetic was greater than 41.4 µg/mL.

Which solubility kinetic does the source give for `O=C(NC1CCCCC1)c1cc(-c2cccc(Cl)c2)on1` here?
The solubility kinetic was 0.7 µg/mL (≈ 2.3 µM).

For `Cc1cccc(N2C(=O)c3cccc4cccc(c34)C2=O)c1`, which solubility kinetic is on record?
Its solubility kinetic is 1.5 µg/mL (≈ 5.22 µM).

With `Cc1ccc(NC(=O)C2CC(=O)N(C(C)C)C2)cc1C` (centres undefined) as the compound, how does the solubility kinetic read?
The solubility kinetic was greater than 41.2 µg/mL.

For `CCOC(=O)c1c(N)sc2c1CCCC2=O`, which solubility kinetic is on record?
The solubility kinetic was 34.7 µg/mL (≈ 145 µM).

Which solubility kinetic does the source give for `O=C(Nc1ccccc1)N(C1=NCCC1)c1ccccc1` here?
Its solubility kinetic is 5.4 µg/mL (≈ 19.3 µM).

For `O=C(O)CCC(=O)NNC(=O)c1ccc([N+](=O)[O-])cc1`, which solubility kinetic is on record?
The solubility kinetic was greater than 42.2 µg/mL.

For `CCc1ccc(NCc2ccc(OC)c(Cn3ccnc3)c2)cc1`, which solubility kinetic is on record?
Its solubility kinetic is 40.2 µg/mL (≈ 125 µM).

Which solubility kinetic does the source give for `Cn1c(SCc2ccccc2Cl)nc2c1c(=O)[nH]c(=O)n2C` here?
The solubility kinetic was 0.4 µg/mL (≈ 1.19 µM).

With `COc1ccc(Nc2nc(N)c([N+](=O)[O-])c(NC3CCCCC3)n2)cc1` as the compound, how does the solubility kinetic read?
Its solubility kinetic is 0.2 µg/mL (≈ 0.558 µM).

Which solubility kinetic does the source give for `COc1ccc(C(=O)O/N=C(\N)c2ccccn2)cc1[N+](=O)[O-]` here?
Its solubility kinetic is 2.6 µg/mL (≈ 8.22 µM).

Which solubility kinetic does the source give for `Nc1nc(Nc2ccccc2F)nc(NCCO)c1[N+](=O)[O-]` here?
Its solubility kinetic is 45.8 µg/mL (≈ 149 µM).

With `O=C1c2cccc3c2N(CCC3)C(=O)C1(F)c1ccccc1` (centres undefined) as the compound, how does the solubility kinetic read?
Its solubility kinetic is greater than 44.3 µg/mL.

Which solubility kinetic does the source give for `CCOc1ccc(Cl)cc1S(=O)(=O)NC1CCCC1` here?
The solubility kinetic was 38.8 µg/mL (≈ 128 µM).

For `CNC(=S)Nc1cc(C)ccc1OC(F)F`, which solubility kinetic is on record?
The solubility kinetic was greater than 36.9 µg/mL.

With `O=C(CSc1nnc(Nc2ccccc2F)s1)NCC1CCCO1` (centres undefined) as the compound, how does the solubility kinetic read?
The solubility kinetic was greater than 55.3 µg/mL.

Which solubility kinetic does the source give for `N#CCCN(C(=O)CN1CCN(S(=O)(=O)c2ccc(Cl)s2)CC1)c1ccc(F)cc1` here?
Its solubility kinetic is greater than 70.6 µg/mL.

For `COc1ccc(/C=C/C(=O)O)cc1S(=O)(=O)NCC1CCCO1` (centres undefined), which solubility kinetic is on record?
Its solubility kinetic is 41.3 µg/mL (≈ 121 µM).

With `COc1ccc(NC(=O)CN2CCc3ccccc3C2)c([N+](=O)[O-])c1` as the compound, how does the solubility kinetic read?
Its solubility kinetic is 1.8 µg/mL (≈ 5.27 µM).

With `O=C(NC(N1CCOCC1)C(Cl)(Cl)Cl)c1ccc(F)cc1` (centres undefined) as the compound, how does the solubility kinetic read?
Its solubility kinetic is 41.1 µg/mL (≈ 116 µM).

For `COC(=O)c1ccc2nc(NC(=O)C3CC3)sc2c1`, which solubility kinetic is on record?
The solubility kinetic was 4.1 µg/mL (≈ 14.8 µM).

For `COc1ccc(Br)cc1CN1CCCCCC1`, which solubility kinetic is on record?
Its solubility kinetic is 37.4 µg/mL (≈ 125 µM).
